Values of other authors in US10219515B2, “Agrochemical adjuvant containing 2-oxo-1,3-dioxolan-4 carboxylates” (BASF SE, priority 2014, dated 2019).
Where two headings read alike, the source gives them in different places.

Compound: O=C(O)CNCP(=O)(O)O [glyphosate]
- acid dissociation constant pKa (amine): ~11.0
- acid dissociation constant pKa (carboxylic acid): ~2.3
- acid dissociation constant pKa (first phosphonic acid): ~0.8
- acid dissociation constant pKa (second phosphonic acid): ~6.0
